The values that follow come from PubChem BioAssay (NCI).

What all share (assay): NCI anticancer screen, dose series, 48 h
Experiment [1] relates to HCT-116 colon.
The subject of experiment [2] is HCT-15 colon.
The subject of experiment [3] is IGROV1 ovarian.
Experiment [4] concerns K-562 leukemia.
Experiment [5] has as its system MALME-3M melanoma.
For experiment [6], the system named is MCF7 breast.
For experiment [7], the system named is MDA-MB-435.
Experiment [8] has as its system MOLT-4 leukemia.
In experiment [9] the test system is NCI-H226 lung.
Experiment [10] deals with NCI/ADR-RES ovarian.
Experiment [11] has as its system OVCAR-3 ovarian.
Experiment [12] relates to OVCAR-4 ovarian.
The test system of experiment [13] is PC-3 prostate.
The subject of experiment [14] is SK-MEL-2 melanoma.
In experiment [15] the test system is SK-MEL-28 melanoma.
Experiment [16] deals with TK-10 renal.
Experiment [17] concerns UACC-62 melanoma.
Experiment [18] deals with RXF 393 renal.
Experiment [19] relates to SR leukemia.

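Where inhibition never reached the appropriate level, the endpoint shown equals the highest concentration tested. Otherwise, values were interpolated linearly from a five-concentration, 48-hour dose response in 96-well plates. TGI: concentration producing complete growth inhibition.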 Where a SMILES comes first, the peptide text is derived from it. The star is where a group is joined. Boc = CC(C)(C)OC(=O)*

Turning to `CCC(C#N)NCc1cccc(CNC(C#N)CC)c1` (stereo not drawn), the TGI in experiment [1], in [2], in [3], in experiment [4], in [5] and in experiment [6] was above 100 µM each time. The TGI in experiment [7], in experiment [8], in experiment [9], in [10], in experiment [11] and in experiment [12] was above 100 µM each time. The TGI in experiment [13], in experiment [14], in experiment [15], in [16] and in [17] was above 100 µM throughout.
For `Cc1cc(S(=O)(=O)Nc2nc3ccccc3c(=O)n2N)c(S)cc1Cl`, the TGI in [1] is above 100 µM; in experiment [2], above 100 µM; in [3], above 100 µM; in experiment [4], above 100 µM; in [5] it was 56.9 µM; in experiment [6] it was above 100 µM. Besides, the TGI in [7] is above 100 µM; in [8] it was above 100 µM; in [9], 67.1 µM; in experiment [10], 83.4 µM; in experiment [11], above 100 µM; in experiment [12], above 100 µM. Also, the TGI in experiment [13] was above 100 µM; in experiment [14] it was above 100 µM; in experiment [15], above 100 µM; in experiment [16], above 100 µM; in [17], 49.2 µM.
`C=C1C2C[C@@H]3O[C@H]4C[C@H]5O[C@@]6(C[C@@H]7O[C@]8(C[C@H](C)[C@@H]9O[C@@H]%10CC(CO)O[C@@H]%10C[C@@H]9O8)C[C@H](C)[C@@H]7O6)C[C@H]5O[C@H]4[C@H](C)[C@H]3OC(=O)C[C@H]3CC[C@@H]4OC5[C@H]6O[C@]7(CC[C@H]8CC(=C)[C@H](CC[C@@H](C[C@H]1C)O2)O8)CC6O[C@@H]5[C@@H](O7)[C@H]4O3` (stereo partly drawn): the TGI was above 1 µM in [3]; above 1 µM in [4]; above 1 µM in [5]; below 0.0001 µM in experiment [7]; above 1 µM in experiment [8]; 0.00022 µM in experiment [9]. For the same compound, the TGI in experiment [10], in experiment [11], in experiment [12], in [13], in experiment [18] and in [14] was above 1 µM throughout. Further, the TGI in [19], in [16] and in experiment [17] was above 1 µM throughout.
`COC(=O)C(Cc1c[nH]c2ccccc12)NC(=O)C(Cc1c[nH]c2ccccc12)NC(=O)C(Cc1c[nH]c2ccccc12)NC(=O)C(Cc1c[nH]c2ccccc12)NC(=O)C(Cc1c[nH]c2ccccc12)NC(=O)C(Cc1c[nH]c2ccccc12)NC(=O)C(Cc1c[nH]c2ccccc12)NC(=O)C(Cc1c[nH]c2ccccc12)NC(=O)OC(C)(C)C` (stereo not drawn) (Boc-WWWWWWWW-OMe; configuration not given here): the TGI in [1], in [2], in experiment [3], in experiment [4], in experiment [5] and in experiment [6] was above 100 µM throughout. Also, the TGI in experiment [7], in [8], in experiment [9], in [11], in experiment [12] and in [13] was above 100 µM throughout. Moreover, the TGI in [14], in experiment [15], in [19], in experiment [16] and in [17] was above 100 µM in each case.
For `CCOC(=O)CCC(NC(=O)c1ccc(OCc2ccc3nc(-c4ccccc4)c(Cl)nc3c2)cc1)C(=O)OCC` (stereo not drawn), the TGI in [1] is above 31.6 µM; in experiment [2], above 31.6 µM; in experiment [3], above 31.6 µM; in [4], above 100 µM; in [5], above 100 µM; in [6], above 31.6 µM. The TGI is above 31.6 µM in [7]; above 31.6 µM in experiment [8]; 68.8 µM in [9]; above 31.6 µM in experiment [10]; above 31.6 µM in [11]; above 31.6 µM in experiment [12]. The TGI was 8.6 µM in experiment [18]; above 100 µM in experiment [14]; above 31.6 µM in [15]; above 31.6 µM in experiment [19]; above 31.6 µM in [16]; above 31.6 µM in experiment [17].
For the compound `CCOC(=O)c1ccc(N=c2sc3ccccc3nc2Nc2ccc(C(=O)OCC)cc2)cc1`, the TGI in [1], in [2], in experiment [3], in experiment [4], in experiment [5] and in experiment [7] was above 100 µM throughout. Also, the TGI in experiment [8], in experiment [9], in [10], in [12], in experiment [13] and in [18] was above 100 µM each time. Besides, the TGI in [14], in experiment [15], in experiment [19], in [16] and in experiment [17] was above 100 µM each time.
As to `O=C(O)CN1C(=O)C(Cc2ccc(O)cc2)N=C(c2cccc(O)c2)c2ccccc21` (stereo not drawn), the TGI in [1], in experiment [2], in experiment [3], in experiment [4], in experiment [5] and in experiment [6] was above 100 µM throughout. Further, the TGI in [7], in [8], in experiment [9], in experiment [11], in experiment [12] and in experiment [13] was above 100 µM each time. Also, the TGI in experiment [14], in experiment [15], in [19], in [16] and in experiment [17] was above 100 µM each time.
